Patent publication US20260015350A1, “AZAQUINAZOLINE PAN-KRAS INHIBITORS” (Mirati Therapeutics, Inc., priority 2022, published 2026)

Columns and labels:
[1] = system: KRas-mediated phosphorylation of ERK in AsPC-1 cells; assay: Inhibition of KRas-mediated phosphorylation of ERK (Cisbio HTRF pERK), AsPC-1 cells; format: cell-based; conditions: Homo sapiens, ASPC1, AsPC-1 cells; HTRF pERK
Procedure, shortened: (§1)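 Using 6,000 cells per well, compounds are applied for 3 hrs and cells then lysed at 4° C with shaking for 40 mins. Phospho-ERK is measured by HTRF after 2 hrs of lysate incubation with the d2/Cryptate antibody mixture.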

KRas^G12S = molecular target: T1, KRas^G12S (Homo sapiens, UniProt P01116, G12S); assay: KRas binding assay (TR-FRET tracer displacement), KRas G12S; conditions: TR-FRET tracer displacement, KRas G12S
T1 construct: Biotinylated KRas (corresponding to amino acids 1-169, produced at Accelegan Inc.); biotin (biotinylated); purchased Accelegan Inc

KRas^G12A = molecular target: T2, KRas^G12A (Homo sapiens, UniProt P01116, G12A); assay: KRas binding assay (TR-FRET tracer displacement), KRas G12A; conditions: TR-FRET tracer displacement, KRas G12A
T2 construct: Biotinylated KRas (corresponding to amino acids 1-169, produced at Accelegan Inc.); biotin (biotinylated); purchased Accelegan Inc

KRas^G12R = molecular target: T3, KRas^G12R (Homo sapiens, UniProt P01116, G12R); assay: KRas binding assay (TR-FRET tracer displacement), KRas G12R
T3 construct: Biotinylated KRas (corresponding to amino acids 1-169, produced at Accelegan Inc.); biotin (biotinylated); purchased Accelegan Inc

KRas^G13D = molecular target: T4, KRas^G13D (Homo sapiens, UniProt P01116, G13D); assay: KRas binding assay (TR-FRET tracer displacement), KRas G13D; conditions: TR-FRET tracer displacement, KRas G13D
T4 construct: Biotinylated KRas (corresponding to amino acids 1-169, produced at Accelegan Inc.); biotin (biotinylated); purchased Accelegan Inc

KRas^G12D = molecular target: T5, KRas^G12D (Homo sapiens, UniProt P01116, G12D); assay: KRas binding assay (TR-FRET tracer displacement), KRas G12D
T5 construct: Biotinylated KRas (corresponding to amino acids 1-169, produced at Accelegan Inc.); biotin (biotinylated); purchased Accelegan Inc

KRas^WT = molecular target: T6, KRas^WT (Homo sapiens, UniProt P01116); assay: KRas binding assay (TR-FRET tracer displacement), KRas WT; conditions: TR-FRET tracer displacement, KRas WT
T6 construct: Biotinylated KRas (corresponding to amino acids 1-169, produced at Accelegan Inc.); biotin (biotinylated); purchased Accelegan Inc

KRas^G12C = molecular target: T7, KRas^G12C (Homo sapiens, UniProt P01116, G12C); assay: KRas binding assay (TR-FRET tracer displacement), KRas G12C; conditions: TR-FRET tracer displacement, KRas G12C
T7 construct: Biotinylated KRas (corresponding to amino acids 1-169, produced at Accelegan Inc.); biotin (biotinylated); purchased Accelegan Inc

KRas^Q61H = molecular target: T8, KRas^Q61H (Homo sapiens, UniProt P01116, Q61H); assay: KRas binding assay (TR-FRET tracer displacement), KRas Q61H; conditions: TR-FRET tracer displacement, KRas Q61H
T8 construct: Biotinylated KRas (corresponding to amino acids 1-169, produced at Accelegan Inc.); biotin (biotinylated); purchased Accelegan Inc

[2] = system: KRas-mediated phosphorylation of ERK in H727 cells; assay: Inhibition of KRas-mediated phosphorylation of ERK (Cisbio HTRF pERK), H727 cells; format: cell-based; conditions: Homo sapiens, NCI-H727, H727 cells; HTRF pERK
Procedure, shortened: as §1

KRas^G12V = molecular target: T9, KRas^G12V (Homo sapiens, UniProt P01116, G12V); assay: KRas binding assay (TR-FRET tracer displacement), KRas G12V
T9 construct: Biotinylated KRas (corresponding to amino acids 1-169, produced at Accelegan Inc.); biotin (biotinylated); purchased Accelegan Inc
T9 sequence (P01116 1-169 isoform P01116-2 G12V): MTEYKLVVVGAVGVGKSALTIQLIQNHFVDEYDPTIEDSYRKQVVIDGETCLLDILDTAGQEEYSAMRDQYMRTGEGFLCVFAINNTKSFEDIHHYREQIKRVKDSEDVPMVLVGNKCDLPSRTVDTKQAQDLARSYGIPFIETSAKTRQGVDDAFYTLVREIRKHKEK

T8 sequence (P01116 1-169 isoform P01116-2 Q61H): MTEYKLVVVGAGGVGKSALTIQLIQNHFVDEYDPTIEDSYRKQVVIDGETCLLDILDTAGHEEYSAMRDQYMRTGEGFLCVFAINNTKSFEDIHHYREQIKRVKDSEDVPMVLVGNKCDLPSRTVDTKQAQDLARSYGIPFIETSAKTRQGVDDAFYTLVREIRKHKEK
T5 sequence (P01116 1-169 isoform P01116-2 G12D): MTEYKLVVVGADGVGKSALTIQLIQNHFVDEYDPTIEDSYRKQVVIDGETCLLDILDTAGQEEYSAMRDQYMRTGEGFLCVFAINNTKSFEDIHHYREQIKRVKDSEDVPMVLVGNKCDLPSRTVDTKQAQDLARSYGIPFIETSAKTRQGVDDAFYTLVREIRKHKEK
T6 sequence (P01116 1-169 isoform P01116-2): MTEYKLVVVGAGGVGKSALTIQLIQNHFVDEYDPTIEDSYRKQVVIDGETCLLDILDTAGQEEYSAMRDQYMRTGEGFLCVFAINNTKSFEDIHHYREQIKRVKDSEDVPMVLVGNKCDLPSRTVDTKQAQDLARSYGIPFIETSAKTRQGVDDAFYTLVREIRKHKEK
T2 sequence (P01116 1-169 isoform P01116-2 G12A): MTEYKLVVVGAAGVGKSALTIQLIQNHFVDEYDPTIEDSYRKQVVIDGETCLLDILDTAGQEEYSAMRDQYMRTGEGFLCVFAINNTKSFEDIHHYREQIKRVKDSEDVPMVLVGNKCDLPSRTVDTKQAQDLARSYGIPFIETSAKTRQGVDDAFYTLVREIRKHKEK
T4 sequence (P01116 1-169 isoform P01116-2 G13D): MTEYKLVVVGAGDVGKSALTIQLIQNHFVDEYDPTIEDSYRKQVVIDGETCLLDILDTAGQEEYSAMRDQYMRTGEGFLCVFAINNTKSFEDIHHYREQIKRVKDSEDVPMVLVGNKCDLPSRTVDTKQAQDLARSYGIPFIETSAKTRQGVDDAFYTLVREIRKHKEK
T1 sequence (P01116 1-169 isoform P01116-2 G12S): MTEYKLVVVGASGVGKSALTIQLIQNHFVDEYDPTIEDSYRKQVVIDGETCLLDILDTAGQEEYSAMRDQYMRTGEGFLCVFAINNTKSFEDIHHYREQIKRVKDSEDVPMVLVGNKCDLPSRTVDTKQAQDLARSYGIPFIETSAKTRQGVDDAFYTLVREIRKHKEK
T7 sequence (P01116 1-169 isoform P01116-2 G12C): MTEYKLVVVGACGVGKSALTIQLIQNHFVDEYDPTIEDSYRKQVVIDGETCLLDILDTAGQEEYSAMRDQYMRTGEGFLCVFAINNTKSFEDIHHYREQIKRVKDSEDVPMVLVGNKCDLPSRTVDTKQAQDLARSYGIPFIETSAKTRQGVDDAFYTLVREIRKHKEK
T3 sequence (P01116 1-169 isoform P01116-2 G12R): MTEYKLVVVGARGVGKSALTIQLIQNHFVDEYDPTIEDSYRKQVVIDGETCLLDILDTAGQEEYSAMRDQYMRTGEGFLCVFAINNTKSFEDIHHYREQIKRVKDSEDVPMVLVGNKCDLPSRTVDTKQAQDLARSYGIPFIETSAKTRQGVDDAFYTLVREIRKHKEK

| SMILES | IC50 [1] | IC50 (KRas^G12S) | IC50 (KRas^G12A) | IC50 (KRas^G12R) | IC50 (KRas^G13D) | IC50 (KRas^G12D) | IC50 (KRas^WT) | IC50 (KRas^G12C) | IC50 (KRas^Q61H) | IC50 [2] | IC50 (KRas^G12V) |
| --- | --- | --- | --- | --- | --- | --- | --- | --- | --- | --- | --- |
| Cc1cc2[nH]ncc2c(-c2ncc3c(N4CCC[C@]5(C4)NC(=O)NC5=O)nc(OC[C@@]45CCCN4C[C@H](F)C5)nc3c2F)c1C [Example 731, (5R)-7-(7-(5,6-dimethyl-1H-indazol-4-yl)-8-fluoro-2-(((2R,7aS)-2-fluorohexahydro-1H-pyrrolizin-7a-yl)methoxy)pyrido[4,3-d]pyrimidin-4-yl)-1,3,7-triazaspiro[4.5]decane-2,4-dione] | > 10000 nM | 12 nM | 13 nM | 10 nM | 13 nM | 15 nM | 12 nM | 11 nM | 13 nM | > 10000 nM | 8 nM |
| Cc1cc2[nH]ncc2c(-c2ncc3c(N4CCCC5(CNC(=O)N5)C4)nc(OCC45CCCN4CCC5)nc3c2F)c1C (centres unmarked) [Example 729, 7-(7-(5,6-dimethyl-1H-indazol-4-yl)-8-fluoro-2-((hexahydro-1H-pyrrolizin-7a-yl)methoxy)pyrido[4,3-d]pyrimidin-4-yl)-1,3,7-triazaspiro[4.5]decan-2-one] | > 10000 nM | 40 nM | 48 nM | 61 nM | 46 nM | 26 nM | 45 nM | 40 nM | 53 nM | > 10000 nM | 36 nM |
| CCc1cccc2cc3[nH]ncc3c(-c3ncc4c(N5CCCC6(CC(=O)N6)C5)nc(OC[C@@]56CCCN5C[C@H](F)C6)nc4c3F)c12 (stereo partly drawn) [Example 771, 6-(7-(5-ethyl-1H-benzo[f]indazol-4-yl)-8-fluoro-2-(((2R,7aS)-2-fluorohexahydro-1H-pyrrolizin-7a-yl)methoxy)pyrido[4,3-d]pyrimidin-4-yl)-1,6-diazaspiro[3.5]nonan-2-one] | 1370 nM | 9 nM | 10 nM | 4 nM | 11 nM | 5 nM | 12 nM | 8 nM | 7 nM | 897 nM | 4 nM |
| O=C1NCC2(CCCN(c3nc(OCC45CCCN4CCC5)nc4c(F)c(-c5c6ccccc6cc6[nH]ncc56)ncc34)C2)N1 (centres unmarked) [Example 756, 7-(7-(1H-benzo[f]indazol-4-yl)-8-fluoro-2-((hexahydro-1H-pyrrolizin-7a-yl)methoxy)pyrido[4,3-d]pyrimidin-4-yl)-1,3,7-triazaspiro[4.5]decan-2-one] | > 10000 nM | 13 nM | 14 nM | 17 nM | 13 nM | 11 nM | 13 nM | 12 nM | 13 nM | > 10000 nM | 10 nM |
| Cc1cc2[nH]nnc2c(-c2ncc3c(N4CCOC[C@@](C)(O)C4)nc(OCC45CCCN4CCC5)nc3c2F)c1C [Example 822, (6S)-4-(7-(5,6-dimethyl-1H-benzo[d][1,2,3]triazol-4-yl)-8-fluoro-2-((tetrahydro-1H-pyrrolizin-7a(5H)-yl)methoxy)pyrido[4,3-d]pyrimidin-4-yl)-6-methyl-1,4-oxazepan-6-ol] | – | 4660 nM | 4980 nM | 9670 nM | 5410 nM | 2180 nM | 5420 nM | 4080 nM | 5660 nM | – | 3430 nM |
| Cc1cc2[nH]nnc2c(-c2ncc3c(N4CCCC5(C4)NC(=O)NC5=O)nc(OCC45CCCN4CCC5)nc3c2F)c1C (centres unmarked) [Example 823, 7-(7-(5,6-dimethyl-1H-benzo[d][1,2,3]triazol-4-yl)-8-fluoro-2-((tetrahydro-1H-pyrrolizin-7a(5H)-yl)methoxy)pyrido[4,3-d]pyrimidin-4-yl)-1,3,7-triazaspiro[4.5]decane-2,4-dione] | – | 1370 nM | 1430 nM | 1380 nM | 1270 nM | 2220 nM | 1420 nM | 1300 nM | 1390 nM | – | 922 nM |
